Test results reported in ChEMBL document CHEMBL1201862, “PubChem BioAssay data set” (2004).
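Following 48 hours of exposure in 96-well plates, responses at five concentrations were used to interpolate endpoints linearly. GI50 = concentration required for 50% inhibition of growth.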 Calls of active or inactive are those of the source. Rule as the data show it: active = GI50 up to about 1.1 µM and inactive = higher.

Experiments:
Assay in all cases: NCI anticancer screen, dose series, 48 h
SW-620 = test system: SW-620
HCT-15 = test system: HCT-15
SNB-19 = test system: SNB-19
EKVX = test system: EKVX
BT-549 = test system: BT-549
SNB-78 = test system: SNB-78
MDA-MB-435 = test system: MDA-MB-435
OVCAR-3 = test system: OVCAR-3
RXF 393 = test system: RXF 393
NCI-H226 = test system: NCI-H226
DU-145 = test system: DU-145
HOP-92 = test system: HOP-92
786-0 = test system: 786-0
SNB-75 = test system: SNB-75
T47D = test system: T47D
MCF7 = test system: MCF7
NCI-H23 = test system: NCI-H23
PC-3 = test system: PC-3
NCI-H522 = test system: NCI-H522
A498 = test system: A498

Structure (SMILES)	GI50 (SW-620)	GI50 (HCT-15) [µM]	GI50 (SNB-19)	GI50 (EKVX)	GI50 (BT-549)	GI50 (SNB-78)	GI50 (MDA-MB-435)	GI50 (OVCAR-3)	GI50 (RXF 393)	GI50 (NCI-H226)	GI50 (DU-145)	GI50 (HOP-92)	GI50 (786-0)	GI50 (SNB-75)	GI50 (T47D)	GI50 (MCF7)	GI50 (NCI-H23)	GI50 (PC-3)	GI50 (NCI-H522)	GI50 (A498)
C/C(=N\NC(=S)NNC(=S)N(C)c1ccccc1)c1ccccn1	0.489 µM (active)	1.16	2.7 µM (inactive)	0.805 µM (active)	3.14 µM (inactive)	8.55 µM (inactive)	3.52 µM (inactive)	0.544 µM (active)	4.19 µM (inactive)	1.41 µM (inactive)	1.02 µM (active)	2.52 µM (inactive)	1.3 µM (inactive)	6.76 µM (inactive)	2.96 µM (inactive)	1.84 µM (inactive)	2.79 µM (inactive)			
COCc1cc2c(s1)C(=O)C1=C(C2=O)C2(C=C(Br)C(=O)C(Br)=C2)CCN1	3.21 µM (inactive)	3.13	18.3 µM (inactive)	11.7 µM (inactive)		7.59 µM (inactive)	1.58 µM (inactive)	0.809 µM (active)	2.4 µM (inactive)	12.7 µM (inactive)	16 µM (inactive)	4.94 µM (inactive)	4.88 µM (inactive)	14.6 µM (inactive)	3.06 µM (inactive)	10.6 µM (inactive)	2.38 µM (inactive)	3.15 µM (inactive)	2.39 µM (inactive)	15.7 µM (inactive)
CC(C)Cc1ccc(C(C)CC2=CCC(CN(C)C)C2=O)cc1 (stereo not given)	2.12 µM (inactive)	2.64	15.3 µM (inactive)	16.4 µM (inactive)	19.5 µM (inactive)	6.43 µM (inactive)	8.13 µM (inactive)	11.2 µM (inactive)	5.78 µM (inactive)	16.7 µM (inactive)	16.6 µM (inactive)	2.95 µM (inactive)	1.79 µM (inactive)	15.8 µM (inactive)	1.86 µM (inactive)	1.17 µM (inactive)	12.9 µM (inactive)	14.9 µM (inactive)	4.06 µM (inactive)	18.5 µM (inactive)
COc1ccc(OC)c2c1C(=O)C(Cl)=C(Cl)C2=O	1.81 µM (inactive)	3.3	> 46 µM (inactive)	8.3 µM (inactive)		4.61 µM (inactive)	2.31 µM (inactive)	2.39 µM (inactive)	1.85 µM (inactive)	18.7 µM (inactive)	19.6 µM (inactive)	2.51 µM (inactive)	3.41 µM (inactive)	14.2 µM (inactive)	3.17 µM (inactive)	2.6 µM (inactive)	6.37 µM (inactive)	14.5 µM (inactive)	2.04 µM (inactive)	20.3 µM (inactive)
O=C(CCN1CCCCC1)N1CCc2c([nH]c3ccccc23)C1c1cccnc1 (stereo not given)	> 94 µM (inactive)	85.5	> 100 µM (inactive)	52.7 µM (inactive)	> 61.8 µM (inactive)	> 86.7 µM (inactive)	35.5 µM (inactive)	> 100 µM (inactive)	28.7 µM (inactive)	> 91.8 µM (inactive)	> 100 µM (inactive)	29.7 µM (inactive)	38.6 µM (inactive)	58.3 µM (inactive)	64.1 µM (inactive)	99.3 µM (inactive)	> 100 µM (inactive)	57 µM (inactive)	35.3 µM (inactive)	30.5 µM (inactive)
